Reference: patent US20180057505A1, “BICYCLIC HETEROARYL COMPOUNDS USEFUL AS INHIBITORS OF THE PAR-2 SIGNALING PATHWAY” (VERTEX PHARMACEUTICALS INCORPORATED, priority 2015, published 2018)

Key:
Type in all cases: cell-based
PAR2 (HT-29 cells) [1] = target: T1, PAR2 (HT-29 cells) (Homo sapiens, UniProt P55085); test: Ca FLIPR TETRA assay, ANTAGONIST mode, activator 8 μM SLIGKV; conditions: HT-29 cells; activator 8 μM SLIGKV; Method A: maximal concentration of antagonist 0.1, 1 or 2 μM
T1 construct: host or cells: HT-29
T1 sequence (P55085 26-397): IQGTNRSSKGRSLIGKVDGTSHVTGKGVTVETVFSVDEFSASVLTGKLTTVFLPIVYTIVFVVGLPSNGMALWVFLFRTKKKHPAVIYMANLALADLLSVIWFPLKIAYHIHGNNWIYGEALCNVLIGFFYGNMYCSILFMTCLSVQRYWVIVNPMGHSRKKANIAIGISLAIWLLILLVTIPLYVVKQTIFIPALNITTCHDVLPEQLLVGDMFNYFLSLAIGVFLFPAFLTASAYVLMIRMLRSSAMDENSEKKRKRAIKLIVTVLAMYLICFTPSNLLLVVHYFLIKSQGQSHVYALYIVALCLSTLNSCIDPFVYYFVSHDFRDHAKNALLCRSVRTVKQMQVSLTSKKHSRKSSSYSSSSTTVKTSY
Summary of the method: (§1)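 Compounds are added to calcium 5-loaded HT-29 cells, read once for intrinsic Ca2+ activation, then incubated 30 min at room temperature. The same wells are then stimulated with a fixed final activator level and the Ca2+ response recorded on FLIPR Tetra.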

PAR2 (HT-29 cells) [2] = target: T1, PAR2 (HT-29 cells); test: Ca FLIPR TETRA assay, ANTAGONIST mode, activator 3.1 U/mL trypsin; conditions: HT-29 cells; activator 3.1 U/mL trypsin; Method A: maximal concentration of antagonist 0.1, 1 or 2 μM
Summary of the method: as §1

[3] = tested on: Thrombin-stimulated Ca2+ response in HT-29 cells; test: Ca FLIPR TETRA assay, ANTAGONIST mode, activator 1 U/mL Thrombin; conditions: HT-29 cells, activator 1 U/mL Thrombin
Summary of the method: as §1

[4] = tested on: UTP-stimulated Ca2+ response in HT-29 cells; test: Ca FLIPR TETRA assay, ANTAGONIST mode, activator 0.6 μM UTP; conditions: HT-29 cells, activator 0.6 μM UTP
Summary of the method: as §1

Row | Structure (SMILES) | IC50 (PAR2 (HT-29 cells) [1]) | IC50 (PAR2 (HT-29 cells) [2]) | IC50 ([3]; Homo sapiens) | IC50 ([4]; Homo sapiens) | IC50 [3] | IC50 [4]
1 | Cc1n[nH]c(C(=O)N2CCN(C(=O)c3cc4nc(C5CCC(Cl)(Cl)CC5)cc(C(C)(C)C)c4o3)C(C)(C)C2)n1 [Example I-304] | 2 nM | 2.8 nM | > 2000 nM | > 2000 nM |  | 
2 | CC(C)(C)c1cc(C2CCC(Cl)(Cl)CC2)nc2cc(C(=O)N3CCN(C(=O)[C@H]4C[C@@](C)(O)C4)CC3(C)C)oc12 [Example I-305] | 1.5 nM | 3 nM | > 2000 nM | > 2000 nM |  | 
3 | CC1(C)CCC(c2cc(C(C)(C)C)c3oc(C(=O)N4CCN(C(=O)[C@H]5CC[C@](C)(C(=O)O)CC5)CC4(C)C)cc3n2)CC1 [Example I-306] | 4.7 nM | 17 nM | 1400 nM | 1800 nM |  | 
4 | [2H]C([2H])([2H])N1CCN(C(=O)c2cc3nc(C4CCC(F)(F)CC4)cc(C(C)(C)C)c3o2)C(C)(C)C1=O [Example I-307] | 124 nM | 210 nM | > 2000 nM | > 2000 nM |  | 
5 | CC(C)(C)c1cc(-c2ccc(F)cc2)nc2cc(C(=O)N3CCN(C(C)(C)C)C(=O)C3(C)C)oc12 [Example I-308] | 14 nM | 37 nM | > 2000 nM | > 2000 nM |  | 
6 | Cc1cc(N2CCN(C(=O)c3cc4nc(C5CCC(C)(C)CC5)cc(C(C)(C)C)c4o3)C(C)(C)C2=O)n[nH]1 [Example I-309] | 32 nM | 40 nM | > 2000 nM | > 2000 nM |  | 
7 | CC(C)(C)c1cc(C2CCC(F)(F)CC2)nc2cc(C(=O)N3CCN(c4cn[nH]c4)C(=O)C3(C)C)oc12 [Example I-310] | 61 nM | 110 nM | > 2000 nM | > 2000 nM |  | 
8 | CC(C)(C)c1cc(C2CCC(F)(F)CC2)nc2cc(C(=O)N3CCN(C(=O)c4nnc[nH]4)CC3(C)C)oc12 [Example I-311] | 81 nM | 83 nM |  |  | > 2000 nM | > 2000 nM
9 | CN1CCN(C(=O)c2cc3nc(C4CCC(F)(F)CC4)cc(C(C)(C)C)c3o2)C(C)(C)C1=O [Example I-312] | 170 nM | 260 nM | > 2000 nM | > 2000 nM |  | 
10 | Cc1c[nH]nc1N1CCN(C(=O)c2cc3nc(C4CCC(C)(C)CC4)cc(C(C)(C)C)c3o2)C(C)(C)C1=O [Example I-313] | 75 nM | 310 nM | > 2000 nM | > 2000 nM |  | 
11 | CC(C)(C)c1cc(-c2ccc(F)cc2)nc2cc(C(=O)N3CCN(C(=O)[C@H]4C[C@@](C)(O)C4)C(C)(C)C3)oc12 [Example I-314] | 190 nM | 730 nM | > 2000 nM | > 2000 nM |  | 
12 | CC1(C)CCC(c2cc(C(C)(C)C)c3oc(C(=O)N4CCN(c5cn[nH]c5)C(=O)C4(C)C)cc3n2)CC1 [Example I-315] | 5.7 nM | 12 nM | > 2000 nM | > 2000 nM |  | 
13 | CN1CCN(C(=O)c2cc3nc(C4CCC(C)(C)CC4)cc(C(C)(C)C)c3o2)C(C)(C)C1=O [Example I-317] | 8.2 nM | 10 nM | > 2000 nM | > 2000 nM |  | 
14 | Cn1cnnc1N1CCN(C(=O)c2cc3nc(-c4ccc(Cl)c(F)c4)cc(C(C)(C)C)c3o2)C(C)(C)C1 [Example I-318] | 2.8 nM | 4.6 nM | > 2000 nM | > 2000 nM |  | 
15 | CC(C)[C@@H](CC(=O)N1CCN(C(=O)c2cc3nc(C4CCC(C)(C)CC4)cc(C(C)(C)C)c3o2)C(C)(C)C1)C(=O)O [Example I-319] | 0.2 nM | 0.2 nM | > 2000 nM | > 2000 nM |  | 
16 | CC(C)[C@@H](CC(=O)N1CCN(C(=O)c2cc3nc(-c4ccc(Cl)cc4)cc(C(C)(C)C)c3o2)C(C)(C)C1)C(=O)O [Example I-320] | 0.1 nM | 0.2 nM | > 2000 nM | > 2000 nM |  | 
17 | CC(C)[C@@H](CC(=O)N1CCN(C(=O)c2cc3nc(-c4ccc(Cl)c(F)c4)cc(C(C)(C)C)c3o2)C(C)(C)C1)C(=O)O [Example I-321] | 0.1 nM | 0.1 nM | > 2000 nM | > 2000 nM |  | 
18 | CC(C)(C)c1cc(-c2ccc(Cl)cc2)nc2cc(C(=O)N3CCC(=O)NCC3(C)C)oc12 [Example I-322] | 92 nM | 240 nM | > 2000 nM | > 2000 nM |  | 
19 | CC(C)(C)c1cc(-c2ccc(Cl)cc2)nc2cc(C(=O)N3CCNC(=O)CC3(C)C)oc12 [Example I-323] | 12 nM | 18 nM | > 2000 nM | > 2000 nM |  | 
20 | CC(C)(C)c1cc(-c2ccc(Cl)c(F)c2)nc2cc(C(=O)N3CCN(C(=O)CC4(C(=O)O)CCCC4)CC3(C)C)oc12 [Example I-324] | 0.2 nM | 0.4 nM | > 2000 nM | > 2000 nM |  | 
21 | CC(C)(C)c1cc(-c2ccc(Cl)c(F)c2)nc2cc(C(=O)N3CCN(c4cccnc4)C(=O)C3(C)C)oc12 [Example I-325] | 20 nM | 20 nM | > 2000 nM | > 2000 nM |  | 
22 | CC(C)(C)c1cc(-c2ccc(Cl)cc2)nc2cc(C(=O)N3CCN(c4cccnc4)C(=O)C3(C)C)oc12 [Example I-326] | 23 nM | 38 nM | > 2000 nM | > 2000 nM |  | 
23 | CC(C)(C)c1cc(-c2ccc(Cl)c(F)c2)nc2cc(C(=O)N3CCN(c4ccncc4)C(=O)C3(C)C)oc12 [Example I-327] | 10 nM | 12 nM | > 2000 nM | > 2000 nM |  | 
24 | CC(C)(C)c1cc(-c2ccc(Cl)cc2)nc2cc(C(=O)N3CCN(c4ccncc4)C(=O)C3(C)C)oc12 [Example I-328] | 16 nM | 22 nM | > 2000 nM | > 2000 nM |  | 
25 | CC(C)(C)c1cc(-c2ccc(Cl)c(F)c2)nc2cc(C(=O)N3CCN(c4ccccn4)C(=O)C3(C)C)oc12 [Example I-329] | 12 nM | 13 nM | > 2000 nM | > 2000 nM |  | 
26 | CC(C)(C)c1cc(-c2ccc(Cl)cc2)nc2cc(C(=O)N3CCN(c4ccccn4)C(=O)C3(C)C)oc12 [Example I-330] | 21 nM | 32 nM | > 2000 nM | > 2000 nM |  | 
27 | CC(C)(C)c1cc(-c2ccc(Cl)c(F)c2)nc2cc(C(=O)N3CCN(c4ncc(-c5nnn[nH]5)cn4)CC3(C)C)oc12 [Example I-331] | 1.3 nM | 2.8 nM | 1800 nM | > 2000 nM |  | 
28 | CC(C)[C@H](CC(=O)N1CCN(C(=O)c2cc3nc(-c4ccc(Cl)cc4)cc(C(C)(C)C)c3o2)C(C)(C)C1)C(=O)O [Example I-333] | 0.4 nM | 0.7 nM | 1800 nM | 2000 nM |  | 
29 | Cc1cncc(N2CCN(C(=O)c3cc4nc(-c5ccc(Cl)c(F)c5)cc(C(C)(C)C)c4o3)C(C)(C)C2=O)n1 [Example I-334] | 1.4 nM | 1.6 nM | > 2000 nM | > 2000 nM |  | 
30 | CC(C)(C)c1cc(-c2ccc(Cl)c(F)c2)nc2cc(C(=O)N3CCC(=O)NCC3(C)C)oc12 [Example I-335] | 91 nM | 28.5 nM | > 2000 nM | > 2000 nM |  | 
